Drawing on doi:10.1101/2024.03.04.583282v1 (biorxiv, 2024), this text covers Kd for one compound.

The target in one assay is NATA2Δ (Arabidopsis thaliana, UniProt Q9ZV06). The assay is described as follows: isothermal titration calorimetry. It counts as binding.
The next assay has as its target NATA1Δ (Arabidopsis thaliana, UniProt Q9ZV05). The assay is described as follows: isothermal titration calorimetry. It counts as binding.

Sequence of NATA1Δ (Q9ZV05 19-228, stated change not applied): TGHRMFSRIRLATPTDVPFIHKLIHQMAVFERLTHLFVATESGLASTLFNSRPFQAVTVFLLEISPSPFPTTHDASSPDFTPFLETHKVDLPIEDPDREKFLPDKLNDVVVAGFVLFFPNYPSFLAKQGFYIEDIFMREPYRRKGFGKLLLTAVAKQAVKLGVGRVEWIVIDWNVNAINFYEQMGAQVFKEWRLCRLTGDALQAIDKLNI
Sequence of NATA2Δ (Q9ZV06 30-236, stated change not applied): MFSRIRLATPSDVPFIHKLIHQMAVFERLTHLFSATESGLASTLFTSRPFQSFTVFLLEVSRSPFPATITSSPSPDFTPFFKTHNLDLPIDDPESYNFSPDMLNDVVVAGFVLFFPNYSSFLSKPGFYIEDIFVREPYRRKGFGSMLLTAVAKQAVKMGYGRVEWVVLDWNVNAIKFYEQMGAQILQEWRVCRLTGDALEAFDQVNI

For the compound `CC(=O)SCCNC(=O)CCNC(=O)[C@H](O)C(C)(C)COP(=O)(O)OP(=O)(O)OC[C@H]1O[C@@H](n2cnc3c(N)ncnc32)[C@H](O)[C@@H]1OP(=O)(O)O` [acCoA], the Kd at NATA2Δ and on NATA1Δ was about 10 µM in each case.
